Results on 24 compounds are retold here after patent US20240279215A1 (Cytokinetics, Incorporated, priority 2022, published 2024).

The EC50 is the concentration at which the effect is half-maximal.

SMILES strings stand for the structures.

In this test the target is human NAMPT (Homo sapiens (Human), UniProt P43490). The experiment in a line: NMN fluorescence biochemical assay (human recombinant NAMPT enzyme assay). In a few lines: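 NMN formed was detected by fluorescence (Ex/Em 355/460 nm) after acetophenone, KOH and formic acid derivatization. The cell-free reaction ran 60 min at ambient temperature with 6 nM human NAMPT, 150 μM nicotinamide, 20 μM PRPP, 2.5 mM ATP, pH 7.2 HEPES, and compound dose responses.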
human NAMPT, sequence (P43490 whole entry): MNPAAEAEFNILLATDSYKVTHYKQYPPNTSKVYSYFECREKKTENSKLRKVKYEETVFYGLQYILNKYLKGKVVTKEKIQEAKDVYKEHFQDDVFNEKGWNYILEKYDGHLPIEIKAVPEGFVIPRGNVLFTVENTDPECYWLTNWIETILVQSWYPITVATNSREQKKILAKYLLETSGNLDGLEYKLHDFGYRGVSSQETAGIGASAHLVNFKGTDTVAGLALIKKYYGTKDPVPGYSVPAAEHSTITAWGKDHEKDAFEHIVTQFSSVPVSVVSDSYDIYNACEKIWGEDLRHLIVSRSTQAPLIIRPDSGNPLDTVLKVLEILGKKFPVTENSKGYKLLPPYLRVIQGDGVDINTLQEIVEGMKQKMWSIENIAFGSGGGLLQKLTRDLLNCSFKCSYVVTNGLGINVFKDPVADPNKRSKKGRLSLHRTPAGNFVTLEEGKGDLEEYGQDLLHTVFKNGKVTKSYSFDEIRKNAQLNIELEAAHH

For the compound `O=C(Nc1ccc(CC2CCN(C3COC3)CC2)cc1)OCc1ccncc1` [Compound 316], the “AC1.4 Human” value was found to be 6.04 µM and the EC50 is 28.6 µM.
Taken in the same sequence, the figures for `CCc1ccc(C(=O)NCc2ccc(NC(=O)OCc3ccc(Cl)cc3)cc2)cn1` [Compound 82, (4-chlorophenyl)methyl N-(4-{[(6-ethylpyridin-3-yl)formamido]methyl}phenyl)carbamate] were 0.66 µM and 3.9 µM.
On to `CC1(O)CCN(C(=O)Cc2ccc(NC(=O)OCc3ccc(Cl)cc3)cc2)CC1` [Compound 116, (4-chlorophenyl)methyl N-{4-[2-(4-hydroxy-4-methylpiperidin-1-yl)-2-oxoethyl]phenyl}carbamate], for which the “AC1.4 Human” value turned out to be 0.95 µM and the EC50 was determined as 6.77 µM.
As for `O=C(Nc1ccc(CC(=O)N2CCN(C3COC3)CC2)cc1)OCc1ccc(Cl)cc1` [Compound 194, (4-chlorophenyl)methyl N-(4-{2-[4-(oxetan-3-yl)piperazin-1-yl]-2-oxoethyl}phenyl)carbamate], the “AC1.4 Human” value was 1.73 µM and the EC50 was determined as 26.7 µM.
The matching figures for `CC(C)(C)OC(=O)N1CCC(Cc2ccc(NC(=O)OCc3cnco3)cc2)CC1` [Compound 79, tert-butyl 4-(4-(((oxazol-5-ylmethoxy)carbonyl)ami-no)benzyl)piperidine-1-carboxylate]: 0.66 µM and 23.6 µM.
The matching figures for `Cn1nccc1Cc1ccc(NC(=O)OCc2ccc(Cl)cc2)cc1` [Compound 314, 4-chlorobenzyl (4-((1-methyl-1H-pyrazol-5-yl)methyl)phenyl)carbamate]: 5.75 µM and 38.3 µM.
The matching figures for `CCc1cc(C(=O)N(C)Cc2ccc(NC(=O)OCc3ccc(Cl)cc3)cc2)n(C)n1` [Compound 289, (4-chlorophenyl)methyl N-(4-{[1-(5-ethyl-2-methylpyrazol-3-yl)-N-methylformamido]methyl}phenyl)carbamate]: 3.95 µM and 50.3 µM.
In the case of `CN(Cc1ccc(NC(=O)OCc2ccc(Cl)cc2)cc1)C(=O)N1CCCC1` [Compound 128, 4-chlorobenzyl (4-((N-methylpyrrolidine-1-carboxamido)methyl)phenyl)carbamate], the “AC1.4 Human” value turned out to be 1.03 µM and the EC50 turned out to be 4.75 µM.
The matching figures for `O=C(Nc1ccc(C2CCN(CC(F)(F)F)CC2)cc1)OCc1cnco1` [Compound 88, 1,3-oxazol-5-ylmethyl N-{4-[1-(2,2,2-trifluoroethyl)piperidin-4-yl]phenyl}]: 0.69 µM and 37.4 µM.
Taken in the same sequence, the figures for `O=C(Nc1ccc(CNC(=O)c2ccncc2F)cc1)OCc1ccc(Cl)cc1` [Compound 78, (4-chlorophenyl)methyl N-(4-{[(3-fluoropyridin-4-yl)formamido]methyl}phenyl)carbamate] were 0.65 µM and 7.44 µM.
The matching figures for `Cc1ccc(S(=O)(=O)NCc2ccc(NC(=O)OCc3ccc(Cl)cc3)cc2)cn1` [Compound 356, (4-chlorophenyl)methyl N-{4-[(6-methylpyridine-3-sulfonamido)methyl]phenyl}carbamate]: 29.04 µM and 18.2 µM.
For `CS(=O)(=O)N1C2CCC1CC(Cc1ccc(NC(=O)OCc3cnco3)cc1)C2` (stereo not drawn) [Compound 406, oxazol-5-ylmethyl (4-((8-(methylsulfonyl)-8-azabicyclo[3.2.1]octan-3-yl)methyl)phenyl)carbamate], the “AC1.4 Human” value is 0.13 µM and the EC50 stood at 6.01 µM.
The matching figures for `CC1CCCN1C(=O)Cc1ccc(NC(=O)OCc2ccc(Cl)cc2)cc1` (stereo not drawn) [Compound 215, (4-chlorophenyl)methyl N-{4-[2-(2-methylpyrrolidin-1-yl)-2-oxoethyl]phenyl}carbamate]: 1.96 µM and 8.35 µM.
With `Cn1ccc(C(=O)NCc2ccc(NC(=O)OCc3ccc(Cl)cc3)cc2)c1` [Compound 254, (4-chlorophenyl)methyl N-(4-{[(1-methylpyrrol-3-yl)formamido]methyl}phenyl)carbamate], the “AC1.4 Human” value stood at 2.64 µM and the EC50 is 15.1 µM.
Taken in the same sequence, the figures for `COC(=O)N1CCC(Cc2ccc(NC(=O)OCc3cnco3)cc2F)CC1` [Compound 450, methyl 4-(2-fluoro-4-(((oxazol-5-ylmethoxy)carbonyl)amino)benzyl)piperidine-1-carboxylate] were 0.13 µM and 4.97 µM.
The matching figures for `C[C@H](NC(=O)c1ccncc1F)c1ccc(NC(=O)OCc2ccc(Cl)cc2)cc1` [Compound 44, (4-chlorophenyl)methyl N-{4-[(1S)-1-[(3-fluoropyridin-4-yl)formamido]ethyl]phenyl}carbamate]: 0.45 µM and 4.19 µM.
Taken in the same sequence, the figures for `Cc1cc(C(=O)N[C@@H](C)c2ccc(NC(=O)OCc3ccc(Cl)cc3)cc2)on1` [Compound 200, 4-chlorobenzyl (S)-(4-(1-(3-methylisoxazole-5-carboxamido)ethyl)phenyl)carbamate] were 1.78 µM and 2.12 µM.
With `Cc1n[nH]cc1C(=O)N(C)Cc1ccc(NC(=O)OCc2ccc(Cl)cc2)cc1` [Compound 197, (4-chlorophenyl)methyl N-(4-{[N-methyl-1-(3-methyl-1H-pyrazol-4-yl)formamido]methyl}phenyl)carbamate], the “AC1.4 Human” value is 1.75 µM and the EC50 was 11.8 µM.
Taken in the same sequence, the figures for `O=C(Nc1ccc(CN2CCN(c3ncccn3)CC2)cc1)OCc1ccc(Cl)cc1` [Compound 73, 4-chlorobenzyl (4-((4-(pyrimidin-2-yl)piperazin-1-yl)methyl)phenyl)carbamate] were 0.62 µM and 1.76 µM.
The matching figures for `CS(=O)(=O)N1CCN(Cc2ccc(NC(=O)OCc3ccc(Cl)cc3)cc2)CC1` [Compound 107, (4-chlorophenyl)methyl N-{4-[(4-methanesulfonylpiperazin-1-yl)methyl]phenyl}carbamate]: 0.89 µM and 10.8 µM.
The matching figures for `CN(Cc1ccc(NC(=O)OCc2ccc(Cl)cc2)cc1)C(=O)c1c(F)cncc1F` [Compound 55, (4-chlorophenyl)methyl N-(4-{[1-(3,5-difluoropyridin-4-yl)-N-methylformamido]methyl}phenyl)carbamate]: 0.51 µM and 1.82 µM.
As to `COC(=O)N1CCC(Cc2ccc(NC(=O)OCc3cnco3)cc2)CC12CC2` (stereo not drawn) [Compound 443, methyl 7-(4-(((oxazol-5-ylmethoxy)carbonyl)amino)benzyl)-4-azaspiro[2.5]octane-4-carboxylate], the “AC1.4 Human” value amounted to 0.22 µM and the concentration giving a half-maximal response (EC50) was 6.45 µM.
The matching figures for `O=C(Nc1ccc(Cc2ccncc2)cc1)OCc1cncs1` [Compound 201, thiazol-5-ylmethyl (4-(pyridin-4-ylmethyl)phenyl)carbamate]: 1.78 µM and 26.4 µM.
For `O=C(Nc1ccc(NS(=O)(=O)Cc2ccccc2)cc1)OCc1ccc(Cl)cc1` [Compound 33, 4-chlorobenzyl (4-((phenylmethyl)sulfonamido)phenyl)carbamate], the “AC1.4 Human” value is 0.38 µM and the 50% effective concentration (EC50) is 1.01 µM.
